# Assays:
# Jurkat T cells = test: Mitochondrial transmembrane potential (ΔΨm) in Jurkat T cells, TMRM flow cytometry with oligomycin (Example 1); assay type: cell-based; settings: relative to negative controls
# Excerpt: Objective. […] Model. The Jurkat T cell model is commonly used to study the potential effects of compounds on T cells in vitro. This cell line allows investigation of stimuli and mechanisms that regulate T cell mitochondrial function and survival. As T cells, Jurkats have a lymphocyte appearance and replicate in culture in suspension. They contain respiring mitochondria and as such response to mitochondrial uncouplers such as niclosamide may be assessed. Uncoupling is identified and quantified by a detecting a drop in the electrochemical gradient across the mitochondrial inner membrane (ΔΨm) that is not associated with a corresponding increase in oxidative phosphorylation. […] Cell culture. Jurkat T cells were purchased from the American Type Culture Collection (Manassas, Va.) and sub-cultured according to instructions from the supplier. Prior to experiments, cells were cultured in RPMI 1640 containing 10% FBS-HI, 50 units penicillin/mL and 50 μg streptomycin/mL, and maintained in log phase prior to experimental setup. […] TMRM has been described as one of the best fluorescent dyes for dynamic and in situ quantitative measurements because it is rapidly and reversibly taken up by live cells and mitochondria. […] Ratios of the fluorescence intensity of each treated sample to the control sample mean were then calculated as a measure of relative decrease in ΔΨm. […]
# human LPMCs T cells = test: Pro-inflammatory cytokine producing LPMC T cells, intracellular staining flow cytometry (Example 10); assay type: cell-based; settings: 5 μM, 24 h, relative to vehicle only negative control
# Excerpt: Model: Lamina propria mononuclear cells (LPMC) in the human intestine are comprised in part by T cells which mediate pathological processes including inflammatory bowel disease. LPMCs can be isolated from human intestine tissue biopsies. After isolation […] cells remain viable ex vivo under appropriate culture conditions for periods of time that allow ex vivo experiments. These cells can be used to investigate if test agents affect their production of pro-inflammatory cytokines including interferon-gamma (IFN), tumor necrosis factor-alpha (TNF) and interleukin 17A (IL-17A), to determine if a test agent affects the pro-inflammatory cytokines that mediate inflammatory bowel disease, including UC. Cell Isolation and Culture: Cells were obtained from colon biopsy specimens of a human from areas with moderate to severe UC. For the isolation of lamina propria mononuclear […] specimens were initially washed in Hank's balanced salt solution (HBSS) then cut into 0.5-cm pieces, and incubated with stirring in pre-warmed HBSS containing 1 mM DTT at 37° C. for 15 minutes. The supernatant was removed and the sample washed with stirring with HBSS for 5 minutes twice. Samples were incubated with stirring in pre-warmed HBSS containing 5 mM EDTA for 30 minutes. The supernatant was removed and the sample washed with stirring with HBSS for 5 minutes three times. The tissue was then digested further in RPMI 1640 containing 2 mg/ml Liberase and 0.01 ug/ml DNase I for 1 hours at 37° C. with stirring. After digestion, the mononuclear cells in suspension were collected and centrifuged at 400 g for 10 minutes. After two washings in HBS, the pellet was resuspended in a 40% Percoll solution and layered on the top of a Percoll solution (100%, 60%, 40%, and 30% Percoll in HBSS). The tube was centrifuged at 400 g for 25 minutes, and LPMCs at the 60%-40% Percoll layer interface were collected. The isolated cells were counted and checked for viability using 0.1% trypan blue (viability ranged from 86% to 94%). […]
# [1] = cited from earlier work
smiles,measurement,setting,value
"O=C(Nc1ccc([N+](=O)[O-])cc1Cl)c1cc(Cl)ccc1O [Niclosamide, 5-chloro-N-(2-chloro-4-nitrophenyl)-2-hydroxybenzamide]",change in ΔΨm in Jurkat cells,"Jurkat T cells; 1-500 μM, 60 minutes, oligomycin present, TMRM",dose-related decrease
same,concentrations of niclosamide that significantly decreased ΔΨm (p<0.05),Jurkat T cells; Jurkat cells,≥ 5 µM
same,human LPMCs T cells that produce IFN,human LPMCs T cells,decrease
same,human LPMCs T cells that produce IL-17A,human LPMCs T cells,decrease
same,human LPMCs T cells that produce TNF,human LPMCs T cells,decrease
same,water solubility,[1]; at 20° C.,5 to 8 µg/mL
same,solubility in acetone,[1],soluble
same,"solubility in ether, ethanol and chloroform",[1],sparingly soluble

# — US10849867B2, “Methods and compositions for treating conditions associated with an abnormal inflammatory response” (First Wave Bio, Inc., priority 2015, dated 2020)
